The record followed here is publication PMC6273912, “Novel 5-Substituted 2-(Aylmethylthio)-4-chloro-N-(5-aryl-1,2,4-triazin-3-yl)benzenesulfonamides: Synthesis, Molecular Structure, Anticancer Activity, Apoptosis-Inducing Activity and Metabolic Stability” (Molecules, 2016).

Like-named read-outs stand apart in the source and are kept apart here.

One data set deals with HCT-116, HeLa and MCF-7. Description: MTT cell viability assay, all tested cell lines together. It counts as cell-based. The note with it: Homo sapiens; average over HCT-116, HeLa and MCF-7; read-out: average IC50 against all tested cell lines. The procedure: (§1) All chemicals, if not stated otherwise, were obtained from Sigma-Aldrich (St. Louis, MO, USA). The MCF-7 cell line was purchased from Cell Lines Services (Eppelheim, Germany), the HeLa and HCT-116 cell lines were obtained from the Department of Microbiology, Tumor and Cell Biology, Karolinska Institute (Stockholm, Sweden). Cells were cultured in Dulbecco’s modified Eagle’s medium (DMEM) supplemented with 10% fetal bovine serum, 2 mM glutamine, 100 units/mL penicillin, and 100 μg/mL streptomycin. Cultures were maintained in a humidified atmosphere with 5% CO2 at 37 °C in an incubator (HeraCell, Heraeus, Langenselbold, Germany).
(§2) Cell viability was determined using the MTT (3-(4,5-dimethylthiazol-2-yl)-2,5-diphenyl-tetrazoliumbromide) assay. Stock solutions of the studied compounds were prepared in 100% DMSO. […] Cells were seeded in 96-well plates at a density of 5 × 10^3 cells/well and treated for 72 h with the examined compounds in the concentration range 1–100 μM (1, 10, 25, 50 and 100 μM). Following treatment, MTT (0.5 mg/mL) was added to the medium and cells were further incubated for 2 h at 37 °C. Cells were lysed with DMSO and the absorbance of the formazan solution was measured at 550 nm with a plate reader (1420 multilabel counter, Victor, Jügesheim, Germany). […] The experiment was performed in triplicate. Values are expressed as the mean ± SD of at least three independent experiments.

The nature of data set [1]: Metabolic stability with human liver microsomes and NADPH. It counts as in vitro ADME. Particulars: liver microsomes. The procedure: Stock solutions of studied compounds were prepared at concentration of 10 mM in DMSO. […] Incubation mixture contained 10 μM of a studied derivative, 1 mM of NADPH (Sigma-Aldrich) and 0.5 mg/mL of human liver microsomes (HLM, Sigma-Aldrich) in potassium phosphate buffer (0.1 M, pH 7.4). Incubation was carried out in thermostat at 37 °C and started by addition of studied compound. 50 μL samples were taken after 5, 15, 30, 45 and 60 min. Enzymatic reaction was terminated by the addition of the equal volume of ice-cold acetonitrile containing 10 μM of alprazolam (Sigma-Aldrich) serving as internal standard (IS). Control incubations were performed without NADPH to assess chemical instability. After collection, samples were immediately centrifuged (10 min, 10,000 rpm) and resulted supernatant was directly analyzed or kept in −80 °C until LC-MS analysis. Natural logarithm of a compound over IS peak area ratio was plotted versus incubation time. Metabolic half-time (t1/2) was calculated from the slope of the linear regression, as reported in [48].
LC-MS analysis was performed on an Agilent 1260 system coupled to SingleQuad 6120 mass spectrometer (Agilent Technologies, Santa Clara, CA, USA). Ascentis Express ES-CN (2.1 mm × 100 mm, 2.7 μm, Supelco Analytical, Bellefonte, PA, USA) was used in reversed-phase mode with gradient elution starting with 50% of phase A (10 mM ammonium formate in water) and 50% of phase B (10 mM ammonium formate in acetonitrile-water mixture, 95:5 v/v). […] Total analysis time was 10 min at 25 °C, flow rate was 0.4 mL/min and the injection volume was 20 μL. The mass spectrometer was equipped with electrospray ion source and operated in positive ionization. Mass analyzer was set individually to each compound to detect [M + H]^+ pseudomolecular ions. MSD parameters of the ESI source were as follows: nebulizer pressure 50 psig (N2), drying gas […] (N2), drying gas temperature 300 °C, capillary voltage 3.5 kV, fragmentor voltage 100 V.
(In general: Liver microsomes are vesicles of endoplasmic reticulum, rich in cytochrome P450 enzymes.)

The subject of data set [2] is MCF-7. Kind of data set: Mitochondrial membrane potential (JC-1), MCF-7. It counts as cell-based, human. Particulars: MCF-7, 24 h, low and moderate concentrations. The procedure:
Loss of the mitochondrial membrane potential (Δψm) is one of the earliest indicators of an apoptosis. It can be detected using fluorescent dye JC-1 (5,5′,6,6′-tetrachloro-1,1′,3,3′-tetraethylbenzimidazolylcarbocyanine iodide) exited with blue laser. JC-1 spontaneously forms dimer complexes (J aggregates) with red fluorescent or remain as a monomers with green fluorescence in cells with high and low Δψm, respectively.
Half an hour before the end of 24 h-treatment 2.5 μg/mL of JC-1 (5,5′,6,6′-tetrachloro-1,1′,3,3′-tetraethylbenzimidazolylcarbocyanine iodide) was added to the cell medium. As a negative control 100 μM CCCP (carbonyl cyanide 3-chlorophenylhydrazone) was used 15 min before JC-1 treatment. Following treatment cells were twice washed with PBS and analyzed with flow cytometer (LSR II, BD Biosciences).
Green and red fluorescence were observed using FL-1 (530 ± 30 nm) and FL-2 (585 ± 42 nm) channels, respectively. Percentage of cell population in red or green fluorescence gate indicated the level of Δψm. Decreasing red fluorescence cell population indicated lower Δψm.

The subject of a further data set is HeLa (cervical cancer). Kind of data set: MTT cell viability assay, HeLa. The class given is cell-based, human. Particulars: Homo sapiens, 72 h, 72 h of incubation, mean ± SD. How it is done:
as §1, §2
For orientation: Tetrazolium dyes change colour on reduction, which living cells bring about.

Data set [3] has as its system MCF-7. Description: Cell cycle analysis (sub-G1, DAPI flow cytometry), MCF-7. The class given is cell-based, human. The note with it: MCF-7, 24 h, mean ± SD. The procedure: One of the most common mechanisms in anticancer drug treatment is changes in cell cycle, which can be measured by DNA content. Cell cycle distribution in HCT-116, HeLa and MCF-7 cells was examined to determine cycle arrest and/or presence of sub-G1 after treatment with compounds 37 and 46. […] Cell populations data are expressed as the mean ± SD of at least three independent experiments.
Following treatment, cells were fixed in cold 70% ethanol for 30 min. Fixed cells were stained for 15 min in buffer containing 500 μg/mL RNAse A (EURx, Gdansk, Poland) and 2.5 μg/mL of DAPI (Sigma-Aldrich, Munich, Germany). The fluorescence of DAPI was measured at 440 ± 40 nm with a flow cytometer (LSR II, BD Biosciences, Mountain View, CA, USA). Each experiment was performed at least in triplicate. Data were analyzed off-line using the BD FACSDiva (BD Biosciences).
Background: A flow cytometer gives signals particle by particle.

In the next data set the test system is HCT-116 (colon cancer). Kind of data set: MTT cell viability assay, HCT-116. The class given is cell-based, human. Particulars: Homo sapiens, HCT-116, 72 h, 72 h of incubation, mean ± SD. The procedure:
as §1, §2

The next data set relates to MCF-7 (breast cancer). Kind of data set: MTT cell viability assay, MCF-7. The class given is cell-based, human. The note with it: Homo sapiens, MCF7, 72 h of incubation, mean ± SD. How it is done:
as §1, §2

As a reminder, the IC50 is the concentration needed to halve the response being measured. Take `O=C(Nc1ccc(Cl)cc1)c1cc(S(=O)(=O)Nc2nncc(-c3ccc(C(F)(F)F)cc3)n2)c(SCc2ccccc2)cc1Cl` [Compound 46, 4-Benzylthio-2-chloro-N-(4-chlorophenyl)-5-{N-[5-(4-trifluoromethylphenyl)-1,2,4-triazin-3-yl]sulfamoyl}-benzamide]: the 50% inhibitory concentration (IC50) is below 71 µM in the data set with HCT-116, HeLa and MCF-7; 80 ± 2 µM in the data set on HeLa (cervical cancer); 64 ± 1 µM in the data set on HCT-116 (colon cancer); 59 ± 2 µM with MCF-7 (breast cancer). The half-life at 10 μM in data set [1] (pH 7.4, human liver microsomes 0.5 mg/mL, 1 mM NADPH, 10 μM compound, pH 7.4, 37 °C, up to 60 min, read-out: In Vitro Metabolic Half-Life t1/2) was above 60 min; in data set [1] (pH 7.4, value in parentheses beside >60, beyond the 60 min incubation, human liver microsomes, NADPH, read-out: In Vitro Metabolic Half-Life t1/2 (min), value in parentheses) it was 78.1 min. Also, the “effect on mitochondrial membrane potential (Δψm)” value with MCF-7 [2] is on record as “remarkably decreased Δψm”. In addition, the Sub-G1 cell population with MCF-7 [3] is 20% ± 5.6%.
